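How tested: cells in 96-well plates exposed to compound for 48 hours at five concentrations. At the GI50, growth is halved. TGI denotes the concentration required for complete inhibition of growth.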
Tests used:
Assay in all cases: NCI anticancer screen, dose series, 48 h
786-0 renal = test system: 786-0 renal
A498 renal = test system: A498 renal
ACHN renal = test system: ACHN renal
BT-549 breast = test system: BT-549 breast
CAKI-1 renal = test system: CAKI-1 renal
CCRF-CEM leukemia = test system: CCRF-CEM leukemia
DU-145 prostate = test system: DU-145 prostate
HL-60(TB) leukemia = test system: HL-60(TB) leukemia
HS 578T breast = test system: HS 578T breast
KM12 colon = test system: KM12 colon
LOX IMVI melanoma = test system: LOX IMVI melanoma
M14 melanoma = test system: M14 melanoma
MALME-3M melanoma = test system: MALME-3M melanoma
MDA-MB-231 breast = test system: MDA-MB-231 breast
MDA-MB-435 = test system: MDA-MB-435
MOLT-4 leukemia = test system: MOLT-4 leukemia
NCI-H226 lung = test system: NCI-H226 lung
NCI-H23 lung = test system: NCI-H23 lung
NCI/ADR-RES ovarian = test system: NCI/ADR-RES ovarian
OVCAR-3 ovarian = test system: OVCAR-3 ovarian
OVCAR-4 ovarian = test system: OVCAR-4 ovarian
OVCAR-5 ovarian = test system: OVCAR-5 ovarian
OVCAR-8 ovarian = test system: OVCAR-8 ovarian
PC-3 prostate = test system: PC-3 prostate
RPMI-8226 leukemia = test system: RPMI-8226 leukemia
RXF 393 renal = test system: RXF 393 renal
SF-268 CNS = test system: SF-268 CNS
SF-539 CNS = test system: SF-539 CNS
SK-MEL-28 melanoma = test system: SK-MEL-28 melanoma
SK-MEL-5 melanoma = test system: SK-MEL-5 melanoma
SK-OV-3 ovarian = test system: SK-OV-3 ovarian
SNB-75 CNS = test system: SNB-75 CNS
SR leukemia = test system: SR leukemia
SW-620 colon = test system: SW-620 colon
TK-10 renal = test system: TK-10 renal
UACC-62 melanoma = test system: UACC-62 melanoma
UO-31 renal = test system: UO-31 renal
A549 NSCLC = test system: A549 NSCLC
COLO 205 colon = test system: COLO 205 colon
HCC-2998 colon = test system: HCC-2998 colon
HCT-116 colon = test system: HCT-116 colon
HCT-15 colon = test system: HCT-15 colon
HOP-62 NSCLC = test system: HOP-62 NSCLC
HT29 colon = test system: HT29 colon
IGROV1 ovarian = test system: IGROV1 ovarian
K-562 leukemia = test system: K-562 leukemia
MCF7 breast = test system: MCF7 breast
NCI-H460 lung = test system: NCI-H460 lung
NCI-H522 lung = test system: NCI-H522 lung
SF-295 CNS = test system: SF-295 CNS
SK-MEL-2 melanoma = test system: SK-MEL-2 melanoma
SN12C renal = test system: SN12C renal
SNB-19 CNS = test system: SNB-19 CNS
U251 CNS = test system: U251 CNS
UACC-257 melanoma = test system: UACC-257 melanoma

CCCC[N+](CCCC)=c1ccc2nc3c(C)cc(N(CC)CC)cc3sc-2c1
GI50 (786-0 renal): 302 nM | TGI (786-0 renal): 1440 nM | GI50 (A498 renal): 236 nM | TGI (A498 renal): 4430 nM | GI50 (ACHN renal): 187 nM | TGI (ACHN renal): 1060 nM | GI50 (BT-549 breast): 225 nM | TGI (BT-549 breast): 1730 nM | GI50 (CAKI-1 renal): 183 nM | TGI (CAKI-1 renal): 1100 nM | GI50 (CCRF-CEM leukemia): 92.3 nM | TGI (CCRF-CEM leukemia): 3420 nM | GI50 (DU-145 prostate): 307 nM | TGI (DU-145 prostate): 1470 nM | GI50 (HL-60(TB) leukemia): 99.5 nM | TGI (HL-60(TB) leukemia): 773 nM | GI50 (HS 578T breast): 341 nM | TGI (HS 578T breast): 2290 nM | GI50 (KM12 colon): 113 nM | TGI (KM12 colon): 1340 nM | GI50 (LOX IMVI melanoma): 146 nM | TGI (LOX IMVI melanoma): 1130 nM | GI50 (M14 melanoma): 338 nM | TGI (M14 melanoma): 1640 nM | GI50 (MALME-3M melanoma): 165 nM | TGI (MALME-3M melanoma): 429 nM | GI50 (MDA-MB-231 breast): 247 nM | TGI (MDA-MB-231 breast): 849 nM | GI50 (MDA-MB-435): 205 nM | TGI (MDA-MB-435): 1200 nM | GI50 (MOLT-4 leukemia): 95.8 nM | TGI (MOLT-4 leukemia): 3140 nM | GI50 (NCI-H226 lung): 265 nM | TGI (NCI-H226 lung): 1720 nM | GI50 (NCI-H23 lung): 60.1 nM | TGI (NCI-H23 lung): 1040 nM | GI50 (NCI/ADR-RES ovarian): 327 nM | TGI (NCI/ADR-RES ovarian): 1840 nM | GI50 (OVCAR-3 ovarian): 120 nM | TGI (OVCAR-3 ovarian): 1150 nM | GI50 (OVCAR-4 ovarian): 51.7 nM | TGI (OVCAR-4 ovarian): 1110 nM | GI50 (OVCAR-5 ovarian): 349 nM | TGI (OVCAR-5 ovarian): 1610 nM | GI50 (OVCAR-8 ovarian): 70.3 nM | TGI (OVCAR-8 ovarian): 2160 nM | GI50 (PC-3 prostate): 58.3 nM | TGI (PC-3 prostate): 1550 nM | GI50 (RPMI-8226 leukemia): 57.1 nM | TGI (RPMI-8226 leukemia): 1580 nM | GI50 (RXF 393 renal): 322 nM | TGI (RXF 393 renal): 1410 nM | GI50 (SF-268 CNS): 339 nM | TGI (SF-268 CNS): 1780 nM | GI50 (SF-539 CNS): 192 nM | TGI (SF-539 CNS): 1140 nM | GI50 (SK-MEL-28 melanoma): 613 nM | TGI (SK-MEL-28 melanoma): 2030 nM | GI50 (SK-MEL-5 melanoma): 99.3 nM | TGI (SK-MEL-5 melanoma): 403 nM | GI50 (SK-OV-3 ovarian): 280 nM | TGI (SK-OV-3 ovarian): 1050 nM | GI50 (SNB-75 CNS): 229 nM | TGI (SNB-75 CNS): 1100 nM | GI50 (SR leukemia): 52.4 nM | TGI (SR leukemia): 1970 nM | GI50 (SW-620 colon): 245 nM | TGI (SW-620 colon): 1580 nM | GI50 (TK-10 renal): 102 nM | TGI (TK-10 renal): 1580 nM | GI50 (UACC-62 melanoma): 290 nM | TGI (UACC-62 melanoma): 1770 nM | GI50 (UO-31 renal): 134 nM | TGI (UO-31 renal): 804 nM

C=CC[P+](c1ccccc1)(c1ccccc1)c1ccccc1
GI50 (786-0 renal): 27600 nM | TGI (786-0 renal): > 100000 nM | GI50 (A498 renal): 7090 nM | TGI (A498 renal): 63000 nM | GI50 (A549 NSCLC): 4540 nM | TGI (A549 NSCLC): > 100000 nM | GI50 (ACHN renal): > 100000 nM | TGI (ACHN renal): > 100000 nM | GI50 (BT-549 breast): 4050 nM | TGI (BT-549 breast): 94500 nM | GI50 (CAKI-1 renal): 52200 nM | TGI (CAKI-1 renal): > 100000 nM | GI50 (CCRF-CEM leukemia): 3400 nM | TGI (CCRF-CEM leukemia): > 100000 nM | GI50 (COLO 205 colon): 2660 nM | TGI (COLO 205 colon): 14100 nM | GI50 (DU-145 prostate): 7330 nM | TGI (DU-145 prostate): > 100000 nM | GI50 (HCC-2998 colon): 3190 nM | TGI (HCC-2998 colon): > 100000 nM | GI50 (HCT-116 colon): 3480 nM | TGI (HCT-116 colon): > 100000 nM | GI50 (HCT-15 colon): > 100000 nM | TGI (HCT-15 colon): > 100000 nM | GI50 (HL-60(TB) leukemia): 1580 nM | TGI (HL-60(TB) leukemia): 6030 nM | GI50 (HOP-62 NSCLC): 12100 nM | TGI (HOP-62 NSCLC): > 100000 nM | GI50 (HS 578T breast): 10100 nM | TGI (HS 578T breast): > 100000 nM | GI50 (HT29 colon): 3210 nM | TGI (HT29 colon): > 100000 nM | GI50 (IGROV1 ovarian): 9740 nM | TGI (IGROV1 ovarian): > 100000 nM | GI50 (K-562 leukemia): 2120 nM | TGI (K-562 leukemia): > 100000 nM | GI50 (KM12 colon): 1460 nM | TGI (KM12 colon): > 100000 nM | GI50 (LOX IMVI melanoma): 6530 nM | TGI (LOX IMVI melanoma): > 100000 nM | GI50 (M14 melanoma): 8090 nM | TGI (M14 melanoma): > 100000 nM | GI50 (MCF7 breast): 2840 nM | TGI (MCF7 breast): > 100000 nM | GI50 (MDA-MB-231 breast): 7610 nM | TGI (MDA-MB-231 breast): > 100000 nM | GI50 (MDA-MB-435): 2070 nM | TGI (MDA-MB-435): 19300 nM | GI50 (MOLT-4 leukemia): 5070 nM | TGI (MOLT-4 leukemia): > 100000 nM | GI50 (NCI-H226 lung): 5880 nM | TGI (NCI-H226 lung): > 100000 nM | GI50 (NCI-H460 lung): 4540 nM | TGI (NCI-H460 lung): > 100000 nM | GI50 (NCI-H522 lung): 1990 nM | TGI (NCI-H522 lung): 20800 nM | GI50 (NCI/ADR-RES ovarian): > 100000 nM | TGI (NCI/ADR-RES ovarian): > 100000 nM | GI50 (OVCAR-3 ovarian): 1990 nM | TGI (OVCAR-3 ovarian): > 100000 nM | GI50 (OVCAR-4 ovarian): 2840 nM | TGI (OVCAR-4 ovarian): > 100000 nM | GI50 (OVCAR-5 ovarian): 13400 nM | TGI (OVCAR-5 ovarian): > 100000 nM | GI50 (OVCAR-8 ovarian): 3250 nM | TGI (OVCAR-8 ovarian): > 100000 nM | GI50 (PC-3 prostate): 1780 nM | TGI (PC-3 prostate): 33500 nM | GI50 (RPMI-8226 leukemia): 675 nM | TGI (RPMI-8226 leukemia): 32200 nM | GI50 (RXF 393 renal): 27600 nM | TGI (RXF 393 renal): > 100000 nM | GI50 (SF-268 CNS): 5460 nM | TGI (SF-268 CNS): > 100000 nM | GI50 (SF-295 CNS): 4580 nM | TGI (SF-295 CNS): 28200 nM | GI50 (SF-539 CNS): 8420 nM | TGI (SF-539 CNS): > 100000 nM | GI50 (SK-MEL-2 melanoma): 3360 nM | TGI (SK-MEL-2 melanoma): 16400 nM | GI50 (SK-MEL-28 melanoma): 11300 nM | TGI (SK-MEL-28 melanoma): > 100000 nM | GI50 (SK-MEL-5 melanoma): 1600 nM | TGI (SK-MEL-5 melanoma): 5270 nM | GI50 (SK-OV-3 ovarian): 19200 nM | TGI (SK-OV-3 ovarian): > 100000 nM | GI50 (SN12C renal): 6360 nM | TGI (SN12C renal): > 100000 nM | GI50 (SNB-19 CNS): 4100 nM | TGI (SNB-19 CNS): > 100000 nM | GI50 (SNB-75 CNS): 3580 nM | TGI (SNB-75 CNS): 57900 nM | GI50 (SR leukemia): 1450 nM | TGI (SR leukemia): > 100000 nM | GI50 (SW-620 colon): 5640 nM | TGI (SW-620 colon): > 100000 nM | GI50 (U251 CNS): 3440 nM | TGI (U251 CNS): > 100000 nM | GI50 (UACC-257 melanoma): 877 nM | TGI (UACC-257 melanoma): 6660 nM | GI50 (UACC-62 melanoma): 2690 nM | TGI (UACC-62 melanoma): > 100000 nM | GI50 (UO-31 renal): 84000 nM | TGI (UO-31 renal): > 100000 nM
